# Assays:
# Format in all cases: cell-based
# human TLR7 = biological target: T1, human TLR7 (Homo sapiens, UniProt Q9NYK1); assay: TLR7 cellular NFκB-luc reporter assay in transiently transfected HEK293 cells; conditions: lowest effective concentration, 6 hours incubation
# T1 construct: expressed in transfected cells; host or cells: HEK293
# T1 sequence (Q9NYK1 27-1049): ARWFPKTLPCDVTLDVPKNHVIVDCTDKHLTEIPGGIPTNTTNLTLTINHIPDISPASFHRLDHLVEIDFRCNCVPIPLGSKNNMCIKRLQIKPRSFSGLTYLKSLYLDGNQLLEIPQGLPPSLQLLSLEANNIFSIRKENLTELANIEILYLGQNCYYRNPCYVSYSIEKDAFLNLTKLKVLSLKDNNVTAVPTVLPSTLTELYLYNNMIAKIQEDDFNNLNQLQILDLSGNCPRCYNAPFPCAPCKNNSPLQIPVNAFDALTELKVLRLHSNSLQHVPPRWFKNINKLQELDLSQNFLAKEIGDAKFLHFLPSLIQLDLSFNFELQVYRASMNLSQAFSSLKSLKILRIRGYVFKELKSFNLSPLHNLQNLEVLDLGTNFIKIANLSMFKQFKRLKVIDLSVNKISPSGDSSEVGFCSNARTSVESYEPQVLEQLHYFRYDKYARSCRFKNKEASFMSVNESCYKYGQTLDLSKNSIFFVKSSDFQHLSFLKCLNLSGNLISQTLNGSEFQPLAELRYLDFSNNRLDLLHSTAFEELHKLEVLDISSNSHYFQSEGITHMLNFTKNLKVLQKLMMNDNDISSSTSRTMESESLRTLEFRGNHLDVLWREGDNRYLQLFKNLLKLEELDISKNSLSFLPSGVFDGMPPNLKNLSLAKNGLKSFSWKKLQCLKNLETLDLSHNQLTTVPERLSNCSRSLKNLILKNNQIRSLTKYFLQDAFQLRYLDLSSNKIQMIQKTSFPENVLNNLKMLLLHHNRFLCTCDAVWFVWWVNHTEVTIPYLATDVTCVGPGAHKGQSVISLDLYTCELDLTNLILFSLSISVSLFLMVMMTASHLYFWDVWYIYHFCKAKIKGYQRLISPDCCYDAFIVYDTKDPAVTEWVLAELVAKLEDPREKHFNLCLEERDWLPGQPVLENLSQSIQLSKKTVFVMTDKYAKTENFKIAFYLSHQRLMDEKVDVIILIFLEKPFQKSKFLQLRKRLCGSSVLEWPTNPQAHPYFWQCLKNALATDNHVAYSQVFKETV
# Experimental: (§1) The ability of compounds to activate human TLR7 and/or TLR8 was assessed in a cellular reporter assay using HEK293 cells transiently transfected with a TLR7 or TLR8 expression vector and NFκB-luc reporter construct.
# (§2) Briefly, HEK293 cells were grown in culture medium (DMEM supplemented with 10% FCS and 2 mM Glutamine). For transfection of cells in 15 cm dishes, cells were detached with Trypsin-EDTA, transfected with a mix of CMV-TLR7 or TLR8 plasmid (1700 ng), NFκB-luc plasmid (850 ng) and a transfection reagent and incubated for 48 h at 37° C. in a humidified 5% CO2 atmosphere. Transfected cells were then washed in PBS, detached with Trypsin-EDTA and resuspended in medium to a density of 1.25×10^5 cells/mL. Forty microliters of cells were then dispensed into each well in 384-well plates, where 200 nL of compound in 100% DMSO was already present. Following 6 hours incubation at 37° C., 5% CO2, the luciferase activity was determined by adding 15 μL of Steady Lite Plus substrate (Perkin Elmer) to each well and readout performed on a ViewLux ultraHTS microplate imager (Perkin Elmer). Dose response curves were generated from measurements performed in quadruplicates.
# human TLR8 = biological target: T2, human TLR8 (Homo sapiens, UniProt Q9NR97); assay: TLR8 cellular NFκB-luc reporter assay in transiently transfected HEK293 cells; conditions: lowest effective concentration, 6 hours incubation
# T2 construct: expressed in transfected cells; host or cells: HEK293
# T2 sequence (Q9NR97 27-1041): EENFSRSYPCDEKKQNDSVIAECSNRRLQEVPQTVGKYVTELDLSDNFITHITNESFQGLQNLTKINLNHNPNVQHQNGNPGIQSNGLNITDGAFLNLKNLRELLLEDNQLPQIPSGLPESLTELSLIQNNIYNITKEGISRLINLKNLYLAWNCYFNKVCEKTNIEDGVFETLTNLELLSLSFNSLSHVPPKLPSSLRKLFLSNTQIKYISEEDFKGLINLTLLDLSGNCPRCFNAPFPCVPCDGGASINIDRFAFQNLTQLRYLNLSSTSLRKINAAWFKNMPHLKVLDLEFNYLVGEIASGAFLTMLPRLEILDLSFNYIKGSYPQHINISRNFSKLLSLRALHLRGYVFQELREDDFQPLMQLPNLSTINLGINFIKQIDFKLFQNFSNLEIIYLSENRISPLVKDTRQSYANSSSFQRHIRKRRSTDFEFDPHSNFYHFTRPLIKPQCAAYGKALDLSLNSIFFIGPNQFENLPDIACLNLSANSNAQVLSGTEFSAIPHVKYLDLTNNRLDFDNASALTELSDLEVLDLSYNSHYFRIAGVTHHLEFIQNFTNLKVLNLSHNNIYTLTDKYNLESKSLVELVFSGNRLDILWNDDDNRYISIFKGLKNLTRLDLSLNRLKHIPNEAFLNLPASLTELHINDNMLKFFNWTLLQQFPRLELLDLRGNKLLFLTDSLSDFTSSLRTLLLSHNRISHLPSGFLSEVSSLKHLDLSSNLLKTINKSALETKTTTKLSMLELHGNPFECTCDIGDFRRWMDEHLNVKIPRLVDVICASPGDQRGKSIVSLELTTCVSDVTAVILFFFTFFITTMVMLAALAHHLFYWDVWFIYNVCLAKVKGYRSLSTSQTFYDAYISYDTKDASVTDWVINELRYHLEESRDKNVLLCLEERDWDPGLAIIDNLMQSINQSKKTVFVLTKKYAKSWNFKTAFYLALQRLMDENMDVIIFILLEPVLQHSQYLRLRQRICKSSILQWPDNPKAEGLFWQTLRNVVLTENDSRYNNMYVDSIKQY
# Experimental: as §1
# as §2, with “quadruplicates. Lowest effective concentrations (LEC) values, defined as the concentration that induces an effect which is at least two fold above the standard deviation of the assay, were determined for each compound.” for “quadruplicates.”
# [1] = test system: interferon-stimulated responsive elements (ISRE); assay: Activation of ISRE promoter elements in HEK-ISREluc cells by conditioned media from compound-treated PBMC; conditions: compound concentration applied to PBMCs overnight, supernatant on HEK-ISREluc cells 24 hours, read-out: HEK-ISRE luc (LEC)
# Experimental: The potential of compounds to induce IFN-I was also evaluated by measuring the activation of interferon-stimulated responsive elements (ISRE) by conditioned media from PBMC. The ISRE element of sequence […] (SEQ ID NO: 1) is highly responsive to the STAT1-STAT2-IRF9 transcription factor, activated upon binding of IFN-I to their receptor IFNAR (Clontech, PT3372-5W). The plasmid pISRE-Luc from Clontech (ref. 631913) contains 5 copies of this ISRE element, followed by the firefly luciferase ORF. A HEK293 cell line stably transfected with pISRE-Luc (HEK-ISREluc) was established to profile the conditioned PBMC cell culture media.
# Briefly, PBMCs were prepared from buffy coats of at least two donors using a standard Ficoll centrifugation protocol. Isolated PBMCs were resuspended in RPMI medium supplemented with 10% human AB serum and 2×10^5 cells/well were dispensed into 384-well plates containing compounds (70 μL total volume). After overnight incubation, 10 μL of supernatant was transferred to 384-well plates containing 5×10^3 HEK-ISREluc cells/well in 30 μL (plated the day before). Following 24 hours of incubation, activation of the ISRE elements was measured by assaying luciferase activity using 40 μL/well Steady Lite Plus substrate (Perkin Elmer) and measured with ViewLux ultraHTS microplate imager (Perkin Elmer). The stimulating activity of each compound on the HEK-ISREluc cells was reported as LEC value, defined as the compound concentration applied to the PBMCs resulting in a luciferase activity at least two fold above the standard deviation of the assay. The LEC in turn indicates the degree of ISRE activation on transfer of a defined amount of PBMC culture medium. Recombinant interferon α-2a (Roferon-A) was used as a standard control compound.
Structure (SMILES),Human TLR 7 (LEC) (human TLR7) [µM],Human TLR 8 (LEC) (human TLR8) [µM],minimal effective concentration [1] [µM]
COCCn1ccc2nc(N)nc(OCc3cc(C)on3)c21 [Compound 2],2.7,>25,0.5
Cc1nc(COc2nc(N)nc3ccn(Cc4ccccn4)c23)no1 [Compound 6],,>25,
CCCCOc1nc(N)nc2ccn(Cc3ccccn3)c12 [Compound 4],1.4,>25,0.6
Cc1cnc(COc2nc(N)nc3ccn(Cc4ccccn4)c23)s1 [Compound 10],,>25,
Cc1cc(COc2nc(N)nc3ccn(Cc4ccccn4)c23)no1 [Compound 5],,>25,
CCCCOc1nc(N)nc2ccn(Cc3ccccc3)c12 [Compound 1],0.6,>25,0.4
COc1ccc(Cn2ccc3nc(N)nc(OCc4cc(C)on4)c32)nc1OC [Compound 7],0.08,>25,0.03
COc1cccnc1Cn1ccc2nc(N)nc(OCc3ncc(C)o3)c21 [Compound 9],,>25,
COc1cccnc1Cn1ccc2nc(N)nc(OCc3cc(C)on3)c21 [Compound 8],0.03,>25,0.01
COc1ccccc1Cn1ccc2nc(N)nc(OCc3cc(C)on3)c21 [Compound 3],0.1,>25,0.03
Cc1cnc(COc2nc(N)nc3ccn(Cc4ccccn4)c23)o1 [Compound 11],,>25,

# Reference: patent US10385054B2, “Pyrrolo[3,2-d]pyrimidine derivatives for the treatment of viral infections and other diseases” (Janssen Sciences Ireland Unlimited Company, priority 2013, dated 2019)
